pKi: −log10 of the molar value. Read-outs that look alike come from different tables or passages of the source.
Tests used:
[1] = target: purified human autoBACE-2 (Homo sapiens (Human), UniProt Q9Y5Z0); experiment: BACE-2 Assay (BACE-HTRF assay); format: biochemical; details: for pKi: Ki calculated from IC50 using the Cheng-Prusoff equation, read-out: BACE2 Ki; for inhibition at 10 µM: read-out: inhibition of BACE2 at 10 μM
Description: Inhibitor IC50s at purified human autoBACE-2 are determined in a time-resolved endpoint proteolysis assay that measures hydrolysis of the QSY7-[…]-Eu-amide FRET peptide substrate (BACE-HTRF assay). […] DMSO is present at 5% final concentration in the assay. Following laser excitation of sample wells at 320 nm, the fluorescence signal at 620 nm is collected for 400 ms following a 50 μs delay on a RUBYstar HTRF plate reader (BMG Labtechnologies). Raw RFU data is normalized to maximum (1.0 nM BACE/DMSO) and minimum (no enzyme/DMSO) RFU values. […] The Ki values are calculated from the IC50 using the Cheng-Prusoff equation.

[2] = target: soluble human BACE1 catalytic domain (Homo sapiens (Human), UniProt P56817); experiment: BACE1 HTRF FRET Assay; details: for pKi: read-out: BACE1 Ki; for inhibition at 10 µM: read-out: BACE1 inhibition, % Inh. at 10 μM, at 10 μM
soluble human BACE1 catalytic domain, sequence (P56817 75-416): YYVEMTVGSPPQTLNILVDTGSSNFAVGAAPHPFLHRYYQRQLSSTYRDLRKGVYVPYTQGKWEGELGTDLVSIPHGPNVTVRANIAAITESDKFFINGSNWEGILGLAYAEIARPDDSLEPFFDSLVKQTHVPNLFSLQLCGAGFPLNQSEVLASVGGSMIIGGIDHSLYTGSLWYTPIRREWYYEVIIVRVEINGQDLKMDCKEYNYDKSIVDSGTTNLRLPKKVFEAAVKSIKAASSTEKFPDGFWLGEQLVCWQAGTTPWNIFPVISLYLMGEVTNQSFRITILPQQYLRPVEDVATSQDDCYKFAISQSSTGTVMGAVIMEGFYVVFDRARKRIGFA

purified human autoBACE-2, sequence (Q9Y5Z0 63-473): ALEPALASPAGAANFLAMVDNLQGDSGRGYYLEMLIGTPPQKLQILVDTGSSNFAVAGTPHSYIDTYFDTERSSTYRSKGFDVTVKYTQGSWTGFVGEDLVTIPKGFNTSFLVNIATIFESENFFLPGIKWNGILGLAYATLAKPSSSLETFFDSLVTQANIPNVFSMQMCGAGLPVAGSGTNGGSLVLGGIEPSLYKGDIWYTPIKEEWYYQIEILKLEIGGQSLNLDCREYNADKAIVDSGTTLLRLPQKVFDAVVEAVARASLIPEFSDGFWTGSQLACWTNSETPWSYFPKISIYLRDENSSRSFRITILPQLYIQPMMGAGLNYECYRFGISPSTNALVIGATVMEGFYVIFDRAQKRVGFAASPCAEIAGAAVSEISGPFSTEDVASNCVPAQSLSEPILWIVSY

Row | SMILES | pKi [1] | pKi [2] | also measured
1 | CC1(CC(F)(F)F)C(=N)N[C@](C)(c2sc(-c3ccc(F)c(C#N)c3)cc2F)CS1(=O)=O (stereo partly shown) [Example 27bm-a] | 8.15 | 7.46 | 
2 | C[C@@]1(c2sc(-c3cccc(C#N)c3)cc2F)CS(=O)(=O)[C@@](C)(c2cccc(F)c2)C(=N)N1 [Example 27br-a] | 8.00 | 7.23 | 
3 | C[C@@]1(c2sc(-c3cccc(C#N)c3)cc2F)CS(=O)(=O)[C@@](C)(c2ccccc2F)C(=N)N1 [Example 27bs-a] | 8.05 | 7.17 | 
4 | COc1cccc2cc(-c3cc(Cl)c([C@]4(C)CS(=O)(=O)[C@@](C)(CC5CCOCC5)C(=N)N4)s3)[nH]c12 [Example 27bx] | ≥ 8.00 | 7.74 | 
5 | CC1(C)C(=N)N[C@](C)(c2sc(-c3cccc(C(F)(F)F)c3)cc2Cl)CS1(=O)=O [Example 27e] | ≥ 8.00 | 7.13 | 
6 | CC1(C)C(=N)N[C@](C)(c2sc(-c3cncc(Cl)c3)cc2Cl)CS1(=O)=O [Example 27l] | ≥ 8.00 | 7.04 | 
7 | CC1(C)C(=N)N[C@](C)(c2sc(-c3cc(Cl)cc(C#N)c3)cc2Cl)CS1(=O)=O [Example 27s] | ≥ 8.00 | 7.19 | 
8 | CC1(C)C(=N)N[C@](C)(c2sc(-c3cccc(-n4nccn4)c3)cc2Cl)CS1(=O)=O [Example 27u] | ≥ 8.00 | 7.31 | 
9 | COc1ccccc1Nc1ccc(F)c(C2(C)CS(=O)(=O)C(C)(C)C(=N)N2)n1 (stereo not shown) [Example 30a] | 6.29 |  | Ki ([2]; BACE1 Ki (nM)): 5280 nM
10 | CC1(C)C(=N)N[C@](C)(c2cc(Nc3noc4cc(F)cnc34)ccc2F)CS1(=O)=O [Example 30b] | 8.30 | 7.66 | 
11 | Cc1nc2cc(CC3(C)C(=N)N[C@](C)(c4cc(F)ccc4F)CS3(=O)=O)ccc2s1 (stereo partly shown) [Example 32-a] |  |  | inhibition at 10 µM [1]: 1 to 24%; BACE1 inhibition, % Inh. at 10 μM ([2]; at 10 μM): 0% Inh at 10 μM
12 | COc1cccc([C@]2(C)C(=N)N[C@](C)(c3cc(F)ccc3F)CS2(=O)=O)c1 [Example 32e-b] |  |  | inhibition at 10 µM [1]: 1 to 24%; inhibition at 10 µM [2]: 22%
13 | C[C@@]1(c2ccc(F)cc2F)CS(=O)(=O)[C@@](C)(c2cccc(Br)c2)C(=N)N1 [Example 32g-a] | 6.84 | 6.42 | 
14 | C[C@@]1(c2ccc(F)cc2F)CS(=O)(=O)[C@@](C)(c2cccc(C(F)(F)F)c2)C(=N)N1 [Example 32h-a] | 6.90 | 6.44 | 
15 | C[C@@]1(c2cccc(OCc3ccccc3)c2)C(=N)N[C@](C)(c2cc(F)ccc2F)CS1(=O)=O [Example 34d-b] |  |  | inhibition at 10 µM [1]: 10%; inhibition at 10 µM [2]: 16%
16 | CC1(C)C(=N)N[C@](C)(c2sc(N3Cc4cc(F)ccc4C3=O)cc2Cl)CS1(=O)=O [Example 35a] | 5.85 | 5.22 | 
17 | CC1(C)C(=N)N[C@](C)(c2cc(-c3cccc(C#N)c3)ccc2F)CS1(=O)=O [compound 10] | > 6.70 |  | inhibition at 1 µM ([2]; read-out: BACE1 % Inh. at 1 μM, at 1 μM): 36%
